Test results as given in patent publication US11076597B2, “High stress resistant plant growth regulator and preparation method and use thereof” (SHANGHAI INSTITUTES FOR BIOLOGICAL SCIENCES, CHINESE …, priority 2015, dated 2021).
pEC50: −log10 of the molar value. Entries after “also recorded” stand apart in the source; their conditions may differ.

Experiments:
wheat = test: Leaf transpiration experiment, wheat; assay type: in vivo; settings: 100 μM spray 18 days after sowing, one day after spraying; FIG. 16
Experimental: ABA synthesis mutant aba2-1 was used in Arabidopsis leaf transpiration experiment. […] Therefore, this mutant is used to exclude the effect of endogenous ABA on the transpiration experiment. The plants were sprayed with a solution containing 0.05% tween-20 and corresponding concentrations of (+)-ABA/0224/0304/0706/0715/0428 or 0.05% Tween-20 and 0.05% DMSO (control) after three weeks of continuous watering with an amount of 1.2 ml/pot. Leaf transpiration experiments of soybeans were conducted at 26° C. with long-day lighting and soybeans were sprayed with a solution containing 0.1% tween-20 and 20 μM (+)-ABA/0224/0304 compound or 0.1% Tween-20 and 0.05% DMSO (control) 14 days after sowing with an amount of 4 ml/pot; the leaf transpiration experiments of cottons were sprayed with a solution containing 0.1% tween-20 and 20 μM (+)-ABA/0224 compound or 0.1% Tween-20 and 0.05% DMSO, respectively, 25 days after sowing with an amount of 4 ml/pot; the leaf transpiration experiments of wheats were sprayed with a solution containing 0.1% tween-20 and 100 μM (+)-ABA/0224 compound or 0.1% Tween-20 and 0.05% DMSO (control) 18 days after sowing with an amount of 6 ml/pot. […]
In this experiment, the temperature change of leaf surface was observed and recorded by an infrared camera, thus reflecting the strength of plant transpiration. […]

[1] = tested on: soybean GmPYL6 + Arabidopsis AtHAB1; test: AlphaScreen assay: promotion of the interaction of soybean GmPYL6 with Arabidopsis HAB1; assay type: binding, soybean (GmPYL6); Arabidopsis thaliana (HAB1); settings: FIG. 13a; 6×His-SUMO-tagged soybean GmPYL6, Biotin-tagged Arabidopsis HAB1 (aa 172-511), 100 nM each; pH 7.4; 1.5 h room temperature
[2] = target: T1, PYL7 receptor-HAB1 protein phosphatase complex (Arabidopsis thaliana, UniProt Q1ECF1); test: AlphaScreen assay, PYL7 receptor binding to HAB1; assay type: biochemical; design: unit not given beside the values; settings: fraction of the EC50 of ABA; FIG. 2d
T1 construct: made in house; host or cells: E. coli BL21 (DE3)
T1 sequence (Q1ECF1 1-211): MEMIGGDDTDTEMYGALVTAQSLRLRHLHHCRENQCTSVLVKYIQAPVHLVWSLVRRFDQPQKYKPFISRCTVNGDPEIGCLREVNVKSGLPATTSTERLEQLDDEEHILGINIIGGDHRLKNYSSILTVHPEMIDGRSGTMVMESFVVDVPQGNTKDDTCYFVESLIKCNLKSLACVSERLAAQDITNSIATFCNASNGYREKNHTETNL
T1 sequence (Q9CAJ0 172-511 partner limits assumed): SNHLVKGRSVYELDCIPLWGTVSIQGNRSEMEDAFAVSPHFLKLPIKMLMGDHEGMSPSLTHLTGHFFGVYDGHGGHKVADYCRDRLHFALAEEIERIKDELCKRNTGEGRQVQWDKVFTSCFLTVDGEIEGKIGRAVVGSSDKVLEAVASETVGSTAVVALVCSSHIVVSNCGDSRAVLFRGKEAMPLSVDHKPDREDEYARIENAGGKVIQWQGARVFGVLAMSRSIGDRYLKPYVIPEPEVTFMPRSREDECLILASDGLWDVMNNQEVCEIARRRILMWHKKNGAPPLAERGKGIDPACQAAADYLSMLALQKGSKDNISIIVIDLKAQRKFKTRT
Experimental: (§1) The AlphaScreen kit (available from Perkin Elmer) was used, and the method was as follows: a 10× buffer (50 mM MOPS, pH 7.4, 50 mM NaF, 50 mM CHAPS, 0.1 mg/ml bovine serum albumin) diluted at 1:10, each of 100 nM HAB1 with Biotin tag sequence and PYR1/PYL1/PYL2/PYL7/GmPYL6/OsPYL2 protein with dual tags of 6×His and SUMO sequences, corresponding concentrations of (+)-ABA/0224/0304/0706/0708/0713/0715/0428/NC0F4, and 5 μg/ml donor beads and acceptor beads (available from Perkin Elmer) were contained in 150 μl of experimental system. After incubating for 1.5 hours at room temperature in the dark, it was placed into an Envision Plate Reader (available from Perkin Elmer) under the programmed AlphaScreen procedure for readings.
(§2) AlphaScreen technology was used to test the ability of the compounds of the present invention to promote PYL receptor binding to PP2C protein phosphatase (HAB1).

[3] = target: T2, PYR1 receptor-HAB1 protein phosphatase complex (Arabidopsis thaliana, UniProt O49686); test: AlphaScreen assay, PYR1 receptor binding to HAB1; assay type: biochemical; settings: fraction of the EC50 of ABA; FIG. 2a, 2h
T2 construct: made in house; host or cells: E. coli BL21 (DE3)
T2 sequence (O49686 1-191): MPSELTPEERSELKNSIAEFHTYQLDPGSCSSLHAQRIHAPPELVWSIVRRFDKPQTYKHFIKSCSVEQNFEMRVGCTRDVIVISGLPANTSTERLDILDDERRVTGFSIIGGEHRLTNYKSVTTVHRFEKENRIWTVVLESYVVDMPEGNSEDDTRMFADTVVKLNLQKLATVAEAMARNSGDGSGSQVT
T2 sequence (Q9CAJ0 172-511 partner limits assumed): T1 sequence (Q9CAJ0 172-511 partner limits assumed)
Experimental: as §1, §2

[4] = tested on: Arabidopsis thaliana Col-0 ecotype seeds; test: Seed germination, Col-0 ecotype; assay type: in vivo
Experimental: Take the compounds 0428 and 0224 of the present invention as examples. The seeds of Arabidopsis thaliana Col-0 ecotype and PYL receptor triple mutant (pyr1;pyl1;pyl4) were sterilized with NaClO and placed at 4° C. for 3 days of the vernalization, and then sown in ½ MS solid medium containing 1 μM (+)-ABA/0224 compound or 0.05% DMSO (control) or in ½ MS solid medium containing 2 μM (+)-ABA/compound 0428 of the present invention or 0.05% DMSO (control). Two lines of plant were sown simultaneously on each medium of 6 cm diameter, with 15-20 seeds sown for each line and 4 replicates for each compound. Culture medium was placed at 22° C. with long-day culture. The seeds germinated on a solid medium containing 1 μM (+)-ABA/0224 compound were photographed 6 days after sowing, and seeds germinated on solid medium containing 2 μM (+)-ABA/0428 compound were photographed 9 days after sowing.

[5] = target: T3, PYL1 receptor-HAB1 protein phosphatase complex (Arabidopsis thaliana, UniProt Q8VZS8); test: AlphaScreen assay, PYL1 receptor binding to HAB1; assay type: biochemical; settings: fraction of the EC50 of ABA; FIG. 2b
T3 construct: made in house; host or cells: E. coli BL21 (DE3)
T3 sequence (Q8VZS8 36-211): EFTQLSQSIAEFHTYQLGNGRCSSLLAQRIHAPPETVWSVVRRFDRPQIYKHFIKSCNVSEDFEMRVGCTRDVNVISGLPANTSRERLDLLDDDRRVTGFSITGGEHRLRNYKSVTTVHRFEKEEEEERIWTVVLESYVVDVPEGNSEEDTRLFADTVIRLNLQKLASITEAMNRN
T3 sequence (Q9CAJ0 172-511 partner limits assumed): T1 sequence (Q9CAJ0 172-511 partner limits assumed)
Experimental: as §1, §2

EC50 value with PYL7 receptor-HAB1 complex as fraction of that of ABA [2]	EC50 value with PYR1 receptor-HAB1 complex as fraction of that of ABA [3]	EC50 value with PYL1 receptor-HAB1 complex as fraction of that of ABA [5]	Structure (SMILES)	leaf temperature versus DMSO control (leaf transpiration) (wheat)	pEC50 [1]	inhibition of seed germination of Col-0 ([4]; 1 μM in 1/2 MS solid medium, 6 days after sowing, FIG. 3)	inhibition of seed germination of Col-0 ([4]; 2 μM in 1/2 MS solid medium, 9 days after sowing, FIG. 15)
–	–	–	CC1=CC(=O)CC(C)(C)[C@@]1(O)/C=C/C(C)=C\C(=O)O [ABA, Abscisic Acid, reference compound]	still significant higher than that of plants in DMSO-sprayed control group	7.05	–	–
1/10	1/40	⅛	CCCN1C(=O)OC(C)c2cc(NS(=O)(=O)Cc3c(F)c(F)c(C)c(F)c3F)ccc21 (stereo not drawn) [Compound 0224]	significantly reduce the transpiration rate of the wheat leaf; also recorded: still significant higher than that of plants in DMSO-sprayed control group	–	can inhibit the seed germination of Col-0; also recorded: could inhibit the seed germination of Col-0 ecotype	–
1/10	1/24	1/7	CCCN1C(=O)OC(C)(C)c2cc(NS(=O)(=O)Cc3c(F)c(F)c(C)c(F)c3F)ccc21 [Compound 0304]	–	–	–	–
–	–	–	CCCN1C(=O)OCc2cc(NS(=O)(=O)Cc3c(F)c(F)c(C)c(F)c3F)ccc21 [Compound 0428]	–	8.20	–	can inhibit the seed germination of the Col-0; also recorded: could inhibit the seed germination of Col-0 ecotype
